From patent US12129237B2, “Substituted diaminocarboxamide and diaminocarbonitrile pyrimidines, compositions thereof, and methods of treatment therewith” (SIGNAL PHARMACEUTICALS, LLC, priority 2011, dated 2024) come the findings set out here.

Read-outs that look alike come from different tables or passages of the source.

The assay has as its target T1, JNK1 (Homo sapiens, UniProt P45983).
T1 construct: purchased Carna Biosciences
As to the kind of experiment: JNK1 biochemical assays (one or more of: time resolved fluorescence, Z'-LYTE Cascade, radioactive).

Setting [1] is: tested in one or more of the JNK1 biochemical assays, read-out: Act. Level (JNK1 biochemical assay IC50 activity level).
Setting [2] is: Table 3, JNK1 IC50 activity level, read-out: Act. Level.
The mark [3] stands for this setting: one or more of the JNK1 biochemical assays, read-out: Act. Level (JNK1 IC50 activity level).
Where [4] appears, read: Table 2, JNK1 IC50 activity level, read-out: Act. Level.

T1 sequence (P45983 whole entry): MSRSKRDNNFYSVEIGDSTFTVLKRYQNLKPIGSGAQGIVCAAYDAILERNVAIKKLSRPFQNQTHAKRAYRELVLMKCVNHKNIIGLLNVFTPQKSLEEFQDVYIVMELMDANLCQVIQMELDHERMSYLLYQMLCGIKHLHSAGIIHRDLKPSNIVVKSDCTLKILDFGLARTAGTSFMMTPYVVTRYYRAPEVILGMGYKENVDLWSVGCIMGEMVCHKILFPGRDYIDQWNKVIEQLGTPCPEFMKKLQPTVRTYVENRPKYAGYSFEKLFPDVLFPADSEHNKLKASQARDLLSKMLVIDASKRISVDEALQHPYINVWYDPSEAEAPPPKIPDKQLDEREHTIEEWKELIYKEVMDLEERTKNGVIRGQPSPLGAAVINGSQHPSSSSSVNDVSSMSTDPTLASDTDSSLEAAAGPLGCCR
Protocol: JNK1 Assay. A 384-well time resolved fluorescence assay was used to monitor JNK1 activity. The JNK1 assay was run in the following assay buffer: 50 mM HEPES, 10 mM MgCl2, 1 mM EGTA, 2 mM DTT, and 0.01% Tween 20. To initiate the reaction 100 nM of ULight™-labeled 4EBP1 peptide (Perkin-Elmer) and 5 μM of ATP were mixed with 500 pM of JNK1 (Carna Biosciences), for a total assay volume of 20 μL in each well. The assay was incubated at room temperature for 1 h and terminated using a mixture of 30 mM EDTA and 4 nM Eu-anti-4EBP1, by adding 20 μL of stop solution to each well. Plates were read on a Perkin-Elmer Envision Reader.
JNK1 Assay. The JNK1 Z′-LYTE® Cascade kinase assay was run in the following buffer: 50 mM HEPES at pH 7.5, 0.01% BRIJ-35, 10 mM MgCl2, 1 mM EGTA, and 1 mM DTT. […] The assay was incubated at room temperature for 1 h. […] The data was then read on a fluorescence plate reader and analyzed.
JNK1 assay. The radioactive JNK kinase assay was carried out in a 96-well plate format at a final volume of 100 μL. […] JNK1 was diluted in the following dilution buffer (20 mM HEPES pH 7.6, 0.1 mM EDTA, 2.5 mM MgCl2, 0.004% (w/v) Triton X100, 2 μg/ml Leupeptin, 20 mM B-glycerol phosphate, 0.1 mM Na3VO4 dithiothreitol) and then pre-mixed with cJun diluted in the substrate solution buffer (20 mM HEPES pH 7.6, 50 mM NaCl, 0.1 mM EDTA, 2.5 mM MgCl2, 0.05% (w/v) Triton X100). […] The enzyme, substrate and inhibitor mixture was allowed to equilibrate at room temperature for 15 minutes. The reaction was started by the addition of 10 μL of 10×ATP in kinase buffer (130 mM MgCl2, 6 mM dithiothreitol, 150 mM para-nitrophenyl phosphate, 100 μCi/ml γ-[^33P]-ATP). Reactions were allowed to proceed for 60 minutes before precipitation of protein via trichloroacetic acid (7.2% TCA final). […] The precipitate was washed with Phosphate Buffered Saline and the amount of phosphate incorporated into cJun was quantified by scintillation counting using a Packard Topcount-NXT. All assays were conducted under conditions where phosphate incorporation was linear with respect to time and enzyme concentration.

For `C[C@@H]1CC[C@@H](Nc2nc(N[C@H]3CC[C@H](O)CC3)ncc2C(N)=O)C[C@H]1O` [Example A-179, 4-((1R,3R,4R)-3-hydroxy-4-methylcyclohexylamino)-2-((1r,4R)-4-hydroxycyclohexylamino)pyrimidine-5-carboxamide], the IC50 under setting [1] is below 0.2 µM.

For `COC[C@H]1CC[C@@H](Nc2nc(N[C@H]3CCC(O)C3)ncc2C(N)=O)CC1` (stereo partly drawn) [Example A-99, 2-((1S,3S)-3-hydroxycyclopentylamino)-4-((1s,4R)-4-(methoxymethyl)cyclohexylamino)pyrimidine-5-carboxamide], the IC50 under setting [1] is below 0.2 µM.

`CO[C@H]1CC[C@H](Nc2ncc(C#N)c(N[C@@H]3CCCC[C@](C)(O)C3)n2)CC1` [Example C-50, 4-((1R,3S)-3-hydroxy-3-methylcycloheptylamino)-2-((1r,4R)-4-methoxycyclohexylamino) pyrimidine-5-carbonitrile]: the IC50 under setting [2] fell in the range of 0.2 to 0.8 µM.

For the compound `CCO[C@H]1CC[C@H](Nc2ncc(C(N)=O)c(N[C@@H](CC)C3CC3)n2)CC1` [Example 373, 4-((S)-1-cyclopropylpropylamino)-2-((1r,4S)-4-ethoxycyclohexylamino)pyrimidine-5-carboxamide], the IC50 under setting [3] was below 0.2 µM.

On to `CC(C)(C)Nc1nc(NC2CCCC(O)CC2)ncc1C(N)=O` (stereo not drawn) [Example 250, 4-(tert-butylamino)-2-(4-hydroxycycloheptylamino)pyrimidine-5-carboxamide], for which, under setting [3], the IC50 was below 0.2 µM.

In the case of `CC(C)[C@@H](C)Nc1ncc(C(N)=O)c(N[C@@H]2CC[C@@H](C)[C@H](O)C2)n1` [Example 470, 4-((1R,3R,4R)-3-hydroxy-4-methylcyclohexylamino)-2-((R)-3-methylbutan-2-ylamino)pyrimidine-5-carboxamide], the IC50 under setting [3] was below 0.2 µM.

For the compound `CC(C)(C)Nc1ncc(C#N)c(NC(C)(C)C)n1` [Example C-63, 2,4-bis(tert-butylamino)pyrimidine-5-carbonitrile], under setting [2], the IC50 is 0.2 to 0.8 µM.

As for `CCC(=O)N[C@H]1CC[C@@H](Nc2nc(N[C@@H](C)C3CCCCC3)ncc2C(N)=O)CC1` [Example A-124, 2-((S)-1-cyclohexylethylamino)-4-((1s,4R)-4-propionamidocyclohexylamino)pyrimidine-5-carboxamide], under setting [1], the IC50 was below 0.2 µM.

As to `CC(C)(C)C(C)(C)Nc1nc(N[C@H]2CC[C@H](O)CC2)ncc1C(N)=O` [Example 334, 2-((1r,4r)-4-hydroxycyclohexylamino)-4-(2,3,3-trimethylbutan-2-ylamino)pyrimidine-5-carboxamide], the IC50 under setting [3] was below 0.2 µM.

Regarding `CCO[C@H]1CC[C@H](Nc2ncc(C(N)=O)c(N[C@H]3CCC[C@@H]3O)n2)C1` [Example A-64, 2-((1S,3S)-3-ethoxycyclopentylamino)-4-((1S,2S)-2-hydroxycyclopentylamino)pyrimidine-5-carboxamide], the IC50 under setting [1] fell in the range of 0.2 to 0.8 µM.

With `CC1(Nc2ncc(C(N)=O)c(N[C@@H]3CCC[C@](C)(O)C3)n2)CCC1` [Example 353, 4-((1R,3S)-3-hydroxy-3-methylcyclohexylamino)-2-(1-methylcyclobutylamino)pyrimidine-5-carboxamide], the IC50 under setting [3] is below 0.2 µM.

In the case of `CCO[C@H]1CC[C@H](Nc2ncc(C(N)=O)c(N[C@@H]3CCCC[C@H](O)C3)n2)CC1` [Example A-158, 2-((1r,4R)-4-ethoxycyclohexylamino)-4-((1R,3S)-3-hydroxycycloheptylamino)pyrimidine-5-carboxamide], the IC50 under setting [1] was below 0.2 µM.

For `NC(=O)c1cnc(NC2CCCC2)nc1Nc1ccccc1` [Example B-44, 2-(cyclopentylamino)-4-(phenylamino)pyrimidine-5-carboxamide], the IC50 under setting [4] was below 0.2 µM.

Consider `CC(Nc1ncc(C(N)=O)c(Nc2ccccc2)n1)c1ccccc1` (stereo not drawn) [Example B-53, 4-(phenylamino)-2-(1-phenylethylamino)pyrimidine-5-carboxamide], for which, under setting [4], the IC50 lay within 0.2 to 0.8 µM.

Take `NC(=O)c1cnc(N[C@@H]2CCc3ccccc3C2)nc1N[C@@H]1CCC[C@H](O)C1` [Example B-84, 4-((1R,3S)-3-hydroxycyclohexylamino)-2-((R)-1,2,3,4-tetrahydronaphthalen-2-ylamino)pyrimidine-5-carboxamide]: the IC50 under setting [4] was below 0.2 µM.

Take `CCO[C@H]1CC[C@@H](Nc2ncc(C(N)=O)c(N[C@H]3CCC[C@@H]3O)n2)CC1` [Example A-62, 2-((1s,4R)-4-ethoxycyclohexylamino)-4-((1S,2S)-2-hydroxycyclopentylamino)pyrimidine-5-carboxamide]: the IC50 under setting [1] was 0.8 to 1 µM.

Turning to `NC(=O)c1cnc(NC2CCCCC2)nc1Nc1ccccc1` [Example B-45, 2-(cyclohexylamino)-4-(phenylamino)pyrimidine-5-carboxamide], under setting [4], the IC50 is below 0.2 µM.

Take `C[C@@H]1CC[C@@H](Nc2nc(NC3CCC3)ncc2C#N)C[C@H]1O` [Example C-65, 2-(cyclobutylamino)-4-((1R,3R,4R)-3-hydroxy-4-methylcyclohexylamino) pyrimidine-5-carbonitrile]: the IC50 under setting [2] was below 0.2 µM.

For the compound `CO[C@H]1CC[C@H](Nc2ncc(C#N)c(N[C@H]3CC[C@H](O)CC3)n2)CC1` [Example C-15, 4-((1r,4r)-4-hydroxycyclohexylamino)-2-((1r,4r)-4-methoxycyclohexylamino) pyrimidine-5-carbonitrile], the IC50 under setting [2] was 0.8 to 1 µM.

Take `CC(C)Nc1nc(N[C@H]2CCC[C@@H](O)CC2)ncc1C(N)=O` [Example 233, 2-((1S,4R)-4-hydroxycycloheptylamino)-4-(isopropylamino)pyrimidine-5-carboxamide]: under setting [3], the IC50 was below 0.2 µM.

Turning to `CC1(Nc2nc(N[C@H]3CC[C@H](O)CC3)ncc2C(N)=O)CCCCC1` [Example 357, 2-((1r,4r)-4-hydroxycyclohexylamino)-4-(1-methylcyclohexylamino)pyrimidine-5-carboxamide], the IC50 under setting [3] is below 0.2 µM.

Turning to `CC(C)(C)Nc1ncc(C(N)=O)c(N[C@@H]2CCCC[C@H](O)C2)n1` [Example A-182, 2-(tert-butylamino)-4-((1R,3S)-3-hydroxycycloheptylamino)pyrimidine-5-carboxamide], under setting [1], the IC50 was below 0.2 µM.

For the compound `CC(C)(C)Nc1nc(N[C@@H]2CCCOC2)ncc1C(N)=O` [Example 301, (R)-4-(tert-butylamino)-2-(tetrahydro-2H-pyran-3-ylamino)pyrimidine-5-carboxamide], the IC50 under setting [3] is below 0.2 µM.

For `CC(C)(C)Nc1nc(N[C@@H]2CCCC[C@H](O)C2)ncc1C(N)=O` [Example 376, 4-(tert-butylamino)-2-((1R,3S)-3-hydroxycycloheptylamino)pyrimidine-5-carboxamide], the IC50 under setting [3] was below 0.2 µM.

For the compound `C[C@@H]1CC[C@@H](Nc2nc(NC34CC(C)(C3)C4)ncc2C(N)=O)C[C@H]1O` [Example 396, 4-((1R,3R,4R)-3-hydroxy-4-methylcyclohexylamino)-2-(3-methylbicyclo[1.1.1]pentan-1-ylamino)pyrimidine-5-carboxamide], the IC50 under setting [3] is below 0.2 µM.

Take `NC(=O)c1cnc(NC2CC2)nc1N[C@@H]1CCC[C@H](O)C1` [Example 379, 2-(cyclopropylamino)-4-((1R,3S)-3-hydroxycyclohexylamino)pyrimidine-5-carboxamide]: under setting [3], the IC50 is below 0.2 µM.

For `NC(=O)c1cnc(N[C@H]2CC[C@H](OCCF)CC2)nc1N[C@H]1CCC[C@@H]1O` [Example A-75, 2-((1r,4S)-4-(2-fluoroethoxy)cyclohexylamino)-4-((1S,2S)-2-hydroxycyclopentylamino)pyrimidine-5-carboxamide], the IC50 under setting [1] is below 0.2 µM.

As to `NC(=O)c1cnc(N[C@H]2CC[C@H](OCC(F)(F)F)CC2)nc1NC12CC(C1)C2` [Example 419, 4-(bicyclo[1.1.1]pentan-1-ylamino)-2-((1r,4r)-4-(2,2,2-trifluoroethoxy)cyclohexylamino)pyrimidine-5-carboxamide], under setting [3], the IC50 was below 0.2 µM.

As for `NC(=O)c1cnc(NCc2cccc(F)c2)nc1Nc1ccccc1` [Example B-39, 2-(3-fluorobenzylamino)-4-(phenylamino)pyrimidine-5-carboxamide], under setting [4], the IC50 lay in the range of 0.2 to 0.8 µM.

Consider `CCO[C@H]1CC[C@@H](Nc2nc(N[C@@H]3CC[C@@H](O)C3)ncc2C(N)=O)CC1` [Example A-95, 4-((1s,4S)-4-ethoxycyclohexylamino)-2-((1R,3R)-3-hydroxycyclopentylamino)pyrimidine-5-carboxamide], for which the IC50 under setting [1] is below 0.2 µM.

Take `C[C@]1(O)CCC[C@@H](Nc2nc(NC3CCC3)ncc2C(N)=O)C1` [Example 340, 2-(cyclobutylamino)-4-((1R,3S)-3-hydroxy-3-methylcyclohexylamino)pyrimidine-5-carboxamide]: the IC50 under setting [3] was below 0.2 µM.

In the case of `CCC1(Nc2nc(N[C@H]3CC[C@H](OC)CC3)ncc2C(N)=O)CCCC1` [Example 454, 4-(1-ethylcyclopentylamino)-2-((1r,4r)-4-methoxycyclohexylamino)pyrimidine-5-carboxamide], under setting [3], the IC50 was below 0.2 µM.

Take `CN(C)C(=O)[C@H]1CC[C@H](Nc2ncc(C(N)=O)c(NC3CCC3)n2)CC1` [Example 437, 4-(cyclobutylamino)-2-((1r,4r)-4-(dimethylcarbamoyl)cyclohexylamino)pyrimidine-5-carboxamide]: under setting [3], the IC50 was below 0.2 µM.

As to `CC(C)(C)Nc1ncc(C#N)c(N[C@@H]2CCC[C@](C)(O)C2)n1` [Example C-59, 2-(tert-butylamino)-4-((1R,3S)-3-hydroxy-3-methylcyclohexylamino) pyrimidine-5-carbonitrile], the IC50 under setting [2] lay in the range of 0.2 to 0.8 µM.

For the compound `CCO[C@H]1CC[C@H](Nc2ncc(C#N)c(NC3CCOCC3)n2)CC1` [Example C-21, 2-((1r,4r)-4-ethoxycyclohexylamino)-4-(tetrahydro-2H-pyran-4-ylamino)pyrimidine-5-carbonitrile], under setting [2], the IC50 fell in the range of 1 to 10 µM.

`CC12CC(Nc3nc(N[C@H]4CC[C@H](OC5CC5)CC4)ncc3C(N)=O)(C1)C2` [Example 442, 2-((1r,4r)-4-cyclopropoxycyclohexylamino)-4-(3-methylbicyclo[1.1.1]pentan-1-ylamino)pyrimidine-5-carboxamide]: the IC50 under setting [3] was below 0.2 µM.
